Experimental data published in the OligoGym collection.
HELM strings list units from the 5' end as sugar, base in round brackets, then linkage (d deoxyribose, r ribose, m 2'-O-methyl, p phosphodiester). [sp] = phosphorothioate linkage

Key:
[1] = target: CDKN2B-AS1; experiment: HEK293-TLR8, 100 nM ASO, then resiquimod
[2] = target: CDKN2B-AS1; experiment: HEK293-TLR7, 100 nM ASO, then resiquimod

Substance	TLR8 potentiation (NF-kB luciferase) (fold of resiquimod alone) [1]	TLR7 signal (NF-kB luciferase) (% of resiquimod alone) [2]
RNA1{m(C)[sp].m(A)[sp].m(G)[sp].m(U)[sp].m(C)[sp].d(T)[sp].d(C)[sp].d(C)[sp].d(A)[sp].d(T)[sp].d(G)[sp].d(T)[sp].d(C)[sp].d(C)[sp].d(C)[sp].m(A)[sp].m(G)[sp].m(G)[sp].m(C)[sp].m(C)}$$$$	2.73	47.8
RNA1{m(C)[sp].m(A)[sp].m(G)[sp].m(U)[sp].m(G)[sp].d(T)[sp].d(T)[sp].d(T)[sp].d(T)[sp].d(T)[sp].d(A)[sp].d(A)[sp].d(T)[sp].d(T)[sp].d(T)[sp].m(U)[sp].m(G)[sp].m(U)[sp].m(A)[sp].m(G)}$$$$	3.18	62.7
RNA1{m(C)[sp].m(C)[sp].m(A)[sp].m(U)[sp].m(G)[sp].d(T)[sp].d(C)[sp].d(C)[sp].d(C)[sp].d(A)[sp].d(G)[sp].d(G)[sp].d(C)[sp].d(C)[sp].d(T)[sp].m(C)[sp].m(C)[sp].m(A)[sp].m(G)[sp].m(U)}$$$$	1.24	41.4
RNA1{m(C)[sp].m(C)[sp].m(U)[sp].m(A)[sp].m(G)[sp].d(A)[sp].d(A)[sp].d(A)[sp].d(G)[sp].d(A)[sp].d(A)[sp].d(G)[sp].d(C)[sp].d(A)[sp].d(A)[sp].m(A)[sp].m(G)[sp].m(A)[sp].m(U)[sp].m(U)}$$$$	3.58	57.2
RNA1{m(C)[sp].m(U)[sp].m(C)[sp].m(U)[sp].m(C)[sp].d(T)[sp].d(T)[sp].d(T)[sp].d(C)[sp].d(T)[sp].d(G)[sp].d(T)[sp].d(G)[sp].d(G)[sp].d(T)[sp].m(U)[sp].m(U)[sp].m(C)[sp].m(U)[sp].m(C)}$$$$	3.82	92.3
RNA1{m(C)[sp].m(U)[sp].m(U)[sp].m(C)[sp].m(A)[sp].d(C)[sp].d(A)[sp].d(T)[sp].d(C)[sp].d(C)[sp].d(A)[sp].d(A)[sp].d(G)[sp].d(A)[sp].d(C)[sp].m(A)[sp].m(G)[sp].m(C)[sp].m(A)[sp].m(A)}$$$$	2.26	55
RNA1{m(C)[sp].m(U)[sp].m(U)[sp].m(G)[sp].m(U)[sp].d(G)[sp].d(A)[sp].d(A)[sp].d(A)[sp].d(A)[sp].d(G)[sp].d(A)[sp].d(T)[sp].d(T)[sp].d(A)[sp].m(U)[sp].m(C)[sp].m(U)[sp].m(U)[sp].m(C)}$$$$	3.89	85.3
RNA1{m(G)[sp].m(A)[sp].m(A)[sp].m(A)[sp].m(A)[sp].d(G)[sp].d(A)[sp].d(T)[sp].d(T)[sp].d(A)[sp].d(T)[sp].d(C)[sp].d(T)[sp].d(T)[sp].d(C)[sp].m(U)[sp].m(U)[sp].m(U)[sp].m(U)[sp].m(A)}$$$$	1.31	34.4
RNA1{m(G)[sp].m(A)[sp].m(G)[sp].m(U)[sp].m(U)[sp].d(C)[sp].d(T)[sp].d(T)[sp].d(C)[sp].d(G)[sp].d(T)[sp].d(A)[sp].d(G)[sp].d(G)[sp].d(C)[sp].m(U)[sp].m(U)[sp].m(C)[sp].m(U)[sp].m(G)}$$$$	0.96	25.9
RNA1{m(G)[sp].m(A)[sp].m(U)[sp].m(U)[sp].m(A)[sp].d(A)[sp].d(A)[sp].d(A)[sp].d(C)[sp].d(A)[sp].d(G)[sp].d(A)[sp].d(T)[sp].d(T)[sp].d(A)[sp].m(A)[sp].m(U)[sp].m(A)[sp].m(C)[sp].m(A)}$$$$	0.73	21.9
RNA1{m(G)[sp].m(C)[sp].m(A)[sp].m(G)[sp].m(U)[sp].d(C)[sp].d(T)[sp].d(C)[sp].d(C)[sp].d(A)[sp].d(T)[sp].d(G)[sp].d(T)[sp].d(C)[sp].d(C)[sp].m(C)[sp].m(A)[sp].m(G)[sp].m(G)[sp].m(C)}$$$$	1.79	20.3
RNA1{m(G)[sp].m(G)[sp].m(A)[sp].m(C)[sp].m(A)[sp].d(C)[sp].d(T)[sp].d(T)[sp].d(A)[sp].d(G)[sp].d(C)[sp].d(T)[sp].d(G)[sp].d(T)[sp].d(T)[sp].m(C)[sp].m(C)[sp].m(U)[sp].m(C)[sp].m(G)}$$$$	1.13	45.8
RNA1{m(G)[sp].m(G)[sp].m(A)[sp].m(G)[sp].m(A)[sp].d(T)[sp].d(C)[sp].d(A)[sp].d(G)[sp].d(A)[sp].d(T)[sp].d(G)[sp].d(A)[sp].d(G)[sp].d(A)[sp].m(G)[sp].m(G)[sp].m(A)[sp].m(G)[sp].m(C)}$$$$	1.05	26.3
RNA1{m(G)[sp].m(G)[sp].m(A)[sp].m(U)[sp].m(U)[sp].d(A)[sp].d(A)[sp].d(A)[sp].d(A)[sp].d(C)[sp].d(A)[sp].d(G)[sp].d(A)[sp].d(T)[sp].d(T)[sp].m(A)[sp].m(A)[sp].m(U)[sp].m(A)[sp].m(C)}$$$$	1.16	27.2
RNA1{m(G)[sp].m(G)[sp].m(U)[sp].m(G)[sp].m(G)[sp].d(C)[sp].d(C)[sp].d(A)[sp].d(C)[sp].d(A)[sp].d(G)[sp].d(G)[sp].d(C)[sp].d(A)[sp].d(A)[sp].m(C)[sp].m(G)[sp].m(U)[sp].m(C)[sp].m(A)}$$$$	0.8	39.1
RNA1{m(G)[sp].m(U)[sp].m(C)[sp].m(A)[sp].m(A)[sp].d(A)[sp].d(C)[sp].d(C)[sp].d(T)[sp].d(A)[sp].d(G)[sp].d(A)[sp].d(A)[sp].d(A)[sp].d(G)[sp].m(A)[sp].m(A)[sp].m(G)[sp].m(C)[sp].m(A)}$$$$	1.6	23.6
RNA1{m(G)[sp].m(U)[sp].m(C)[sp].m(C)[sp].m(C)[sp].d(A)[sp].d(G)[sp].d(G)[sp].d(C)[sp].d(C)[sp].d(T)[sp].d(C)[sp].d(C)[sp].d(A)[sp].d(G)[sp].m(U)[sp].m(G)[sp].m(U)[sp].m(C)[sp].m(U)}$$$$	1.05	19
RNA1{m(G)[sp].m(U)[sp].m(C)[sp].m(G)[sp].m(U)[sp].d(G)[sp].d(G)[sp].d(C)[sp].d(A)[sp].d(A)[sp].d(A)[sp].d(T)[sp].d(A)[sp].d(G)[sp].d(T)[sp].m(C)[sp].m(C)[sp].m(U)[sp].m(A)[sp].m(G)}$$$$	2.12	27.5
RNA1{m(G)[sp].m(U)[sp].m(C)[sp].m(U)[sp].m(C)[sp].d(C)[sp].d(A)[sp].d(T)[sp].d(G)[sp].d(T)[sp].d(C)[sp].d(C)[sp].d(C)[sp].d(A)[sp].d(G)[sp].m(G)[sp].m(C)[sp].m(C)[sp].m(U)[sp].m(C)}$$$$	1.01	23.8
RNA1{m(G)[sp].m(U)[sp].m(C)[sp].m(U)[sp].m(C)[sp].d(T)[sp].d(A)[sp].d(C)[sp].d(T)[sp].d(G)[sp].d(T)[sp].d(T)[sp].d(A)[sp].d(C)[sp].d(C)[sp].m(U)[sp].m(C)[sp].m(U)[sp].m(G)[sp].m(A)}$$$$	2.41	19.2
RNA1{m(G)[sp].m(U)[sp].m(G)[sp].m(G)[sp].m(U)[sp].d(T)[sp].d(A)[sp].d(A)[sp].d(G)[sp].d(T)[sp].d(A)[sp].d(C)[sp].d(A)[sp].d(T)[sp].d(G)[sp].m(A)[sp].m(G)[sp].m(C)[sp].m(U)[sp].m(C)}$$$$	0.59	21.6
RNA1{m(G)[sp].m(U)[sp].m(G)[sp].m(U)[sp].m(C)[sp].d(C)[sp].d(T)[sp].d(T)[sp].d(C)[sp].d(A)[sp].d(T)[sp].d(G)[sp].d(C)[sp].d(T)[sp].d(T)[sp].m(U)[sp].m(G)[sp].m(G)[sp].m(A)[sp].m(U)}$$$$	1.33	18.1
RNA1{m(G)[sp].m(U)[sp].m(G)[sp].m(U)[sp].m(U)[sp].d(T)[sp].d(T)[sp].d(T)[sp].d(A)[sp].d(A)[sp].d(T)[sp].d(T)[sp].d(T)[sp].d(T)[sp].d(G)[sp].m(U)[sp].m(A)[sp].m(G)[sp].m(A)[sp].m(G)}$$$$	1.31	23.6
RNA1{m(U)[sp].m(A)[sp].m(A)[sp].m(A)[sp].m(A)[sp].d(T)[sp].d(A)[sp].d(A)[sp].d(G)[sp].d(G)[sp].d(G)[sp].d(G)[sp].d(A)[sp].d(A)[sp].d(T)[sp].m(A)[sp].m(G)[sp].m(G)[sp].m(G)[sp].m(G)}$$$$	1.28	41
RNA1{m(U)[sp].m(A)[sp].m(U)[sp].m(U)[sp].m(U)[sp].d(C)[sp].d(C)[sp].d(A)[sp].d(C)[sp].d(A)[sp].d(T)[sp].d(G)[sp].d(C)[sp].d(C)[sp].d(C)[sp].m(A)[sp].m(G)[sp].m(U)[sp].m(G)[sp].m(U)}$$$$	2.77	30.5
RNA1{m(U)[sp].m(C)[sp].m(U)[sp].m(C)[sp].m(C)[sp].d(A)[sp].d(T)[sp].d(G)[sp].d(T)[sp].d(C)[sp].d(C)[sp].d(C)[sp].d(A)[sp].d(G)[sp].d(G)[sp].m(C)[sp].m(C)[sp].m(U)[sp].m(C)[sp].m(C)}$$$$	3.41	43.5
RNA1{m(U)[sp].m(G)[sp].m(U)[sp].m(G)[sp].m(A)[sp].d(A)[sp].d(A)[sp].d(A)[sp].d(G)[sp].d(A)[sp].d(T)[sp].d(T)[sp].d(A)[sp].d(T)[sp].d(C)[sp].m(U)[sp].m(U)[sp].m(C)[sp].m(U)[sp].m(U)}$$$$	2.79	34.5
